Several values for one entry are separate records, joined by “and”; a condition that tells them apart may be missing. Identical values can stand only once.
Columns and labels:
22Rv1 cells [1] = test: Anti-proliferation activity assay (CCK8, 72 h); format: cell-based, human; conditions: 22Rv1; for Relative proliferation rate (%) / optical density: replicates
22Rv1 cells [2] = test: Cell growth assay (5-day course); format: cell-based, human; conditions: 22Rv1, 0.5 µM
DU145 cells [3] = test: Cell growth assay (5-day course); format: cell-based, human; conditions: DU145, 2 μM
PC-3 cells [4] = test: Cell growth assay (5-day course); format: cell-based, human; conditions: PC-3, 4 µM; for Relative proliferation rate / optical density: replicates
22Rv1 cells [5] = test: Colony formation assay; format: cell-based, human; conditions: 22Rv1, 0.5 μM, replicates
DU145 cells [6] = test: Colony formation assay; format: cell-based, human; conditions: DU145, 2 μM, replicates
DU145 cells [7] = test: Invasion assay (transwell); format: cell-based, human; conditions: DU145, 2 μM, replicates
PC-3 cells [8] = test: Invasion assay (transwell); format: cell-based, human; conditions: PC-3; 2 µM; replicates
22Rv1 cells [9] = test: Apoptosis assay (Annexin V-APC/PI flow cytometry); format: cell-based, human; conditions: 22Rv1, 0.5 μM, replicates
DU145 cells [10] = test: Apoptosis assay (Annexin V-APC/PI flow cytometry); format: cell-based, human; conditions: DU145, 2 μM, replicates
PC-3 cells [11] = test: Apoptosis assay (Annexin V-APC/PI flow cytometry); format: cell-based, human; conditions: PC-3; 2 µM; replicates
22Rv1 cells [12] = test: Cell cycle assay (PI flow cytometry); format: cell-based, human; conditions: 22Rv1, 0.5 μM, replicates
DU145 cells [13] = test: Cell cycle assay (PI flow cytometry); format: cell-based, human; conditions: DU145, 2 μM, replicates
PC-3 cells [14] = test: Cell cycle assay (PI flow cytometry); format: cell-based, human; conditions: PC-3, 2 µM, replicates
DU145 xenograft [15] = test: In vivo antitumor activity, DU145 xenograft mouse model; parameters: species or system BALB/c nude mice; conditions: for Body weight (Fig. 7b) / Tumor volume (Fig. 7a): individual mice 1-10
DU145 xenograft [16] = test: H&E and Ki67 staining of xenograft tumor tissues; format: in vivo, BALB/c nude mice; conditions: DU145, reference drug groups, replicates

`CC(=O)c1c(C)c2cnc(Nc3ccc(N4CCNCC4)cn3)nc2n(C2CCCC2)c1=O` [palbociclib] was tested, and the “Relative proliferation rate (%) mean” value (22Rv1 cells [1]; 0.0049 uM) was 10.7151%, the “Relative proliferation rate (%)” value (22Rv1 cells [1]; 0.0049 uM) was 10.6906% and 8.054% and 13.4011% and the optical density (22Rv1 cells [1]; 0.0049 uM) was 0.944 and 0.959 and 0.937. The “Relative proliferation rate (%) mean” value (22Rv1 cells [1]; 0.078 uM) was 28.5598%, the “Relative proliferation rate (%)” value (22Rv1 cells [1]; 0.078 uM) was 28.5714% and 25.4075% and 31.7006% and the optical density (22Rv1 cells [1]; 0.078 uM) was 0.755 and 0.778 and 0.739. For the same compound, the “Relative proliferation rate (%) mean” value (22Rv1 cells [1]; 0.3125 uM) was 42.3403%, the “Relative proliferation rate (%)” value (22Rv1 cells [1]; 0.3125 uM) was 42.3841% and 37.8715% and 46.7652% and the optical density (22Rv1 cells [1]; 0.3125 uM) was 0.609 and 0.648 and 0.576. The “Relative proliferation rate (%) mean” value (22Rv1 cells [1]; 1.25 uM) was 63.5644%, the “Relative proliferation rate (%)” value (22Rv1 cells [1]; 1.25 uM) was 63.5762% and 60.0192% and 67.098% and the optical density (22Rv1 cells [1]; 1.25 uM) was 0.385 and 0.417 and 0.356. The “Relative proliferation rate (%) mean” value (22Rv1 cells [1]; 5 uM) was 73.8099%, the “Relative proliferation rate (%)” value (22Rv1 cells [1]; 5 uM) was 73.6991% and 70.3739% and 77.3567% and the optical density (22Rv1 cells [1]; 5 uM) was 0.278 and 0.309 and 0.245. For the same compound, the “Relative proliferation rate (%) mean” value (22Rv1 cells [1]; 20 uM) was 83.6751%, the “Relative proliferation rate (%)” value (22Rv1 cells [1]; 20 uM) was 83.6329% and 79.9616% and 87.4307% and the optical density (22Rv1 cells [1]; 20 uM) was 0.173 and 0.209 and 0.136. For the same compound, the “Relative proliferation rate (%) mean” value (22Rv1 cells [1]; 80 uM) was 92.6404%, the “Relative proliferation rate (%)” value (22Rv1 cells [1]; 80 uM) was 92.6206% and 87.0566% and 98.244% and the optical density (22Rv1 cells [1]; 80 uM) was 0.078 and 0.135 and 0.019. For the same compound, the “Relative proliferation rate mean” value (22Rv1 cells [2]; day 1) was 1.1416, the “Relative proliferation rate mean” value (22Rv1 cells [2]; day 2) was 1.363 and the “Relative proliferation rate mean” value (22Rv1 cells [2]; day 3) was 1.755. The “Relative proliferation rate mean” value (22Rv1 cells [2]; day 4) was 2.003, the “Relative proliferation rate mean” value (DU145 cells [3]; day 1) was 1.596 and the “Relative proliferation rate mean” value (DU145 cells [3]; day 2) was 2.367. For the same compound, the “Relative proliferation rate mean” value (DU145 cells [3]; day 3) was 5.211, the “Relative proliferation rate mean” value (DU145 cells [3]; day 4) was 6.975 and the “Relative proliferation rate mean” value (PC-3 cells [4]; day 0) was 1. For the same compound, the Relative proliferation rate (PC-3 cells [4]; day 0) was 1, the optical density (PC-3 cells [4]; day 0) was 0.261 and the “Relative proliferation rate mean” value (PC-3 cells [4]; day 1) was 1.157. For the same compound, the Relative proliferation rate (PC-3 cells [4]; day 1) was 1.143 and 1.182 and 1.147, the optical density (PC-3 cells [4]; day 1) was 0.298 and 0.308 and 0.299 and the “Relative proliferation rate mean” value (PC-3 cells [4]; day 2) was 1.563. For the same compound, the Relative proliferation rate (PC-3 cells [4]; day 2) was 1.569 and 1.565 and 1.554, the optical density (PC-3 cells [4]; day 2) was 0.409 and 0.408 and 0.405 and the “Relative proliferation rate mean” value (PC-3 cells [4]; day 3) was 2.215. The Relative proliferation rate (PC-3 cells [4]; day 3) was 2.206 and 2.244 and 2.194, the optical density (PC-3 cells [4]; day 3) was 0.575 and 0.585 and 0.572 and the “Relative proliferation rate mean” value (PC-3 cells [4]; day 4) was 4.39. For the same compound, the Relative proliferation rate (PC-3 cells [4]; day 4) was 4.419 and 4.354 and 4.396, the optical density (PC-3 cells [4]; day 4) was 1.152 and 1.135 and 1.146 and the “Colony formation (cell number)” value (22Rv1 cells [5]) was 250 cell number and 274 cell number and 246 cell number. For the same compound, the “Colony formation (cell number)” value (DU145 cells [6]) was 150 cell number and 158 cell number and 148 cell number, the “Cell invasion (cell number)” value (DU145 cells [7]) was 1998 cell number and 2045 cell number and 2102 cell number and the “Cell invasion (cell number)” value (PC-3 cells [8]) was 1678 cell number and 1789 cell number and 1654 cell number. The “Apoptosis (%)” value (22Rv1 cells [9]) was 5.82% and 6.41% and 7.27%, the “Apoptosis (%)” value (DU145 cells [10]) was 16.25% and 14.39% and 12.36% and the “Apoptosis (%)” value (PC-3 cells [11]) was 13.98% and 14.78% and 15.2%. For the same compound, the “Cell cycle percentages ( % ) G0/G1” value (22Rv1 cells [12]) was 79.03% and 81.73% and 83.36%, the “Cell cycle percentages ( % ) G2/M” value (22Rv1 cells [12]) was 9.98% and 8.76% and 8.18% and the “Cell cycle percentages ( % ) S” value (22Rv1 cells [12]) was 10.99% and 9.51% and 8.46%. The “Cell cycle percentages ( % ) G0/G1” value (DU145 cells [13]) was 59.02% and 61.19% and 64.25%, the “Cell cycle percentages ( % ) G2/M” value (DU145 cells [13]) was 23.03% and 20.58% and 18.04% and the “Cell cycle percentages ( % ) S” value (DU145 cells [13]) was 17.95% and 18.23% and 19.71%. For the same compound, the “Cell cycle percentages ( % ) G0/G1” value (PC-3 cells [14]; G0/G1) was 84.02% and 87.57% and 88.06%, the “Cell cycle percentages ( % ) G2/M” value (PC-3 cells [14]; G2/M) was 10.01% and 8.39% and 8.02% and the “Cell cycle percentages ( % ) S” value (PC-3 cells [14]; S) was 5.97% and 4.04% and 3.92%. The “antitumor activity (in words)” value (DU145 xenograft [15]; DU145 xenograft, 100 mg/kg orally once a day, seven weeks) was “only delayed the tumor growth”, the “Body weight (Fig. 7b)” value (DU145 xenograft [15]; Day 1) was 20.6 and 19.7 and 20.3 (2×) and 19.6 and 19.8 and 20.4 and 20.1 and 21.5 and 21.1 and the “Tumor volume (Fig. 7a)” value (DU145 xenograft [15]; Day 1, in cm³ (unit assumed)) was 0.06799 and 0.07327 and 0.07849 and 0.09349 and 0.07486 and 0.07173 and 0.06955 and 0.08095 and 0.1033 and 0.07176. For the same compound, the “Body weight (Fig. 7b)” value (DU145 xenograft [15]; Day 3) was 20.9 and 20.1 and 20.5 and 19.9 and 20.3 and 20.7 (2×) and 20.4 and 21.5 (2×), the “Tumor volume (Fig. 7a)” value (DU145 xenograft [15]; Day 3) was 0.109 (2×) and 0.1112 and 0.1321 and 0.1287 and 0.1049 and 0.09325 and 0.1073 and 0.1517 and 0.1054 and the “Body weight (Fig. 7b)” value (DU145 xenograft [15]; Day 5) was 21.2 and 20.4 and 20.7 (2×) and 20.2 and 20.5 and 20.8 and 21.6 and 21.8 and 20.9. The “Tumor volume (Fig. 7a)” value (DU145 xenograft [15]; Day 5, in cm³ (unit assumed)) was 0.1433 and 0.1864 and 0.1614 and 0.176 and 0.1543 and 0.1645 and 0.1193 and 0.1528 and 0.2268 and 0.2014, the “Tumor volume (Fig. 7a)” value (DU145 xenograft [15]; Day 7, in cm³ (unit assumed)) was 0.1784 and 0.235 and 0.2414 and 0.2692 and 0.217 and 0.2962 and 0.1705 and 0.2421 and 0.3416 and 0.2763 and the “Body weight (Fig. 7b)” value (DU145 xenograft [15]; Day 7, in g (unit assumed)) was 21.5 and 20.6 and 21 and 20.5 and 20.7 and 21.1 and 20.9 and 21.9 and 22.1 and 21.2. For the same compound, the “Body weight (Fig. 7b)” value (DU145 xenograft [15]; Day 9) was 21.7 and 21 and 21.5 (2×) and 20.9 and 21.3 (2×) and 21.2 and 22.3 and 22.5, the “Tumor volume (Fig. 7a)” value (DU145 xenograft [15]; Day 9, in cm³ (unit assumed)) was 0.239 and 0.3072 and 0.3051 and 0.3239 and 0.2873 and 0.3055 and 0.2456 and 0.3235 and 0.4654 and 0.3489 and the “Body weight (Fig. 7b)” value (DU145 xenograft [15]; Day 11) was 22.1 and 21.4 and 21.9 and 21.2 and 21.6 and 21.7 and 21.5 (2×) and 22.6 and 22.9. The “Tumor volume (Fig. 7a)” value (DU145 xenograft [15]; Day 11, in cm³ (unit assumed)) was 0.3066 and 0.4081 and 0.3897 and 0.4352 and 0.3512 and 0.3909 and 0.2984 and 0.4401 and 0.56 and 0.4357, the “Tumor volume (Fig. 7a)” value (DU145 xenograft [15]; Day 13, in cm³ (unit assumed)) was 0.3785 and 0.467 and 0.4591 and 0.5566 and 0.4456 and 0.4658 and 0.368 and 0.5218 and 0.6407 and 0.5062 and the “Body weight (Fig. 7b)” value (DU145 xenograft [15]; Day 13, in g (unit assumed)) was 22.5 and 21.7 and 22.2 and 21.4 and 21.9 and 22.1 and 21.6 and 23.1 and 23.2 and 21.8. For the same compound, the “Body weight (Fig. 7b)” value (DU145 xenograft [15]; Day 15) was 22.9 and 22 and 22.4 and 21.6 and 22.1 (2×) and 22.5 and 21.7 and 23.3 and 23.5, the “Tumor volume (Fig. 7a)” value (DU145 xenograft [15]; Day 15, in cm³ (unit assumed)) was 0.4581 and 0.5316 and 0.5555 and 0.6598 and 0.5071 and 0.5543 and 0.4465 and 0.6242 and 0.7718 and 0.6156 and the “Body weight (Fig. 7b)” value (DU145 xenograft [15]; Day 17) was 23.1 (2×) and 22.2 and 22.7 (2×) and 21.9 and 22.4 and 21.6 and 23.7 and 22.3. For the same compound, the “Tumor volume (Fig. 7a)” value (DU145 xenograft [15]; Day 17, in cm³ (unit assumed)) was 0.5062 and 0.5921 and 0.6502 and 0.7599 and 0.6087 and 0.6352 and 0.4918 and 0.6837 and 0.8676 and 0.6822, the “Body weight (Fig. 7b)” value (DU145 xenograft [15]; Day 19) was 23.4 (2×) and 22.5 and 23.1 (2×) and 22.3 and 22.8 and 21.9 and 23.9 and 22.6 and the “Tumor volume (Fig. 7a)” value (DU145 xenograft [15]; Day 19, in cm³ (unit assumed)) was 0.5936 and 0.6347 and 0.7034 and 0.8268 and 0.6585 and 0.679 and 0.5363 and 0.7534 and 0.9195 and 0.6727. The “Tumor weight (Fig. 7c)” value (DU145 xenograft [15]; reference drug groups, individual mice, in g (unit assumed)) was 1.87 and 2.14 and 1.86 and 2.29 and 1.85 and 1.63 and 1.81 and 1.69 and 1.58 and the “Positive rate ( % ) (Fig. 7f)” value (DU145 xenograft [16]) was 31.83% and 31.88% and 31.79%.
